Assay results taken from US20090311217A1, “3-SUBSTITUTED-1H-INDOLE COMPOUNDS, THEIR USE AS MTOR KINASE AND PI3 KINASE INHIBITORS, AND THEIR SYNTHESES” (priority 2008, published 2009).

Legend:
PI3K-alpha = PI3K-alpha (Homo sapiens, UniProt P42336); experiment: PI3K-alpha fluorescence polarization assay; format: biochemical; details: read-out: PI3Kα Avg. IC50
PI3K-gamma = PI3K-gamma (Homo sapiens, UniProt P48736); experiment: PI3K-gamma fluorescence polarization assay; format: biochemical; details: PI3Kγ Avg. IC50
Outline: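 FP competition read-out: PIP3 produced displaces BODIPY-TMR-IP4 (5 nM) from GST-GRP1 PH domain (100 nM). Kinase step: 5 ng enzyme, 2.5 μM diC8-PIP2, 25 μM ATP, pH 7 HEPES/MgCl2, 1 h, 25° C; EDTA stop.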

PI3K-alpha, sequence (P42336 whole entry, species assumed): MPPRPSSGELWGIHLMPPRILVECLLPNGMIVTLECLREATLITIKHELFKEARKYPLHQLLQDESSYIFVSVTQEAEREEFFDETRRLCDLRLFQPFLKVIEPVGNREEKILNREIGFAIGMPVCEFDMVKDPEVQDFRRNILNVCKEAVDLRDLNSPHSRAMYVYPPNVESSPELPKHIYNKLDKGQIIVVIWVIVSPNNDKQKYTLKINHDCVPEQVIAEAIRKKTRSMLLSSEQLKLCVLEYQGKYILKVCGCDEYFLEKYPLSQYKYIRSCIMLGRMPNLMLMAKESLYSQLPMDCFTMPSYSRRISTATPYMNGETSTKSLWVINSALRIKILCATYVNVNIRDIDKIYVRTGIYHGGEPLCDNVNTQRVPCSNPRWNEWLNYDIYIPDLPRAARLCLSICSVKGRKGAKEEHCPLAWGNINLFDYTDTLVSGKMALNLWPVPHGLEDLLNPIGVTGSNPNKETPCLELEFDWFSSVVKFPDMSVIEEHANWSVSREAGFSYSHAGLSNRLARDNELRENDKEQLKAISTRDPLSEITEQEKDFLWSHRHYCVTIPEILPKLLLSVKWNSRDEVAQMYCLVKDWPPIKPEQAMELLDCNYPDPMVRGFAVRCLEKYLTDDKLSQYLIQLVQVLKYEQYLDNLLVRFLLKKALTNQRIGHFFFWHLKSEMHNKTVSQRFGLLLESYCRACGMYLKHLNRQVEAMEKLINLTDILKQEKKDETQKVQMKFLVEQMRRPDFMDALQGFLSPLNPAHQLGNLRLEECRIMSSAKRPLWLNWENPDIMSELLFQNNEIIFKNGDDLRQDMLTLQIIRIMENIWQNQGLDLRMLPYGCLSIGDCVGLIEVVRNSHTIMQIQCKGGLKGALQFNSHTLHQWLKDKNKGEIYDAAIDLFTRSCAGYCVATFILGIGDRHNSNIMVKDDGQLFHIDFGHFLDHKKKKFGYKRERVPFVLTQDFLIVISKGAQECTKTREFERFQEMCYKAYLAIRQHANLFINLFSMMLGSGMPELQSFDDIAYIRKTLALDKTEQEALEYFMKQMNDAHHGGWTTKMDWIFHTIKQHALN
PI3K-alpha, sequence (P27986 whole entry partner, species assumed): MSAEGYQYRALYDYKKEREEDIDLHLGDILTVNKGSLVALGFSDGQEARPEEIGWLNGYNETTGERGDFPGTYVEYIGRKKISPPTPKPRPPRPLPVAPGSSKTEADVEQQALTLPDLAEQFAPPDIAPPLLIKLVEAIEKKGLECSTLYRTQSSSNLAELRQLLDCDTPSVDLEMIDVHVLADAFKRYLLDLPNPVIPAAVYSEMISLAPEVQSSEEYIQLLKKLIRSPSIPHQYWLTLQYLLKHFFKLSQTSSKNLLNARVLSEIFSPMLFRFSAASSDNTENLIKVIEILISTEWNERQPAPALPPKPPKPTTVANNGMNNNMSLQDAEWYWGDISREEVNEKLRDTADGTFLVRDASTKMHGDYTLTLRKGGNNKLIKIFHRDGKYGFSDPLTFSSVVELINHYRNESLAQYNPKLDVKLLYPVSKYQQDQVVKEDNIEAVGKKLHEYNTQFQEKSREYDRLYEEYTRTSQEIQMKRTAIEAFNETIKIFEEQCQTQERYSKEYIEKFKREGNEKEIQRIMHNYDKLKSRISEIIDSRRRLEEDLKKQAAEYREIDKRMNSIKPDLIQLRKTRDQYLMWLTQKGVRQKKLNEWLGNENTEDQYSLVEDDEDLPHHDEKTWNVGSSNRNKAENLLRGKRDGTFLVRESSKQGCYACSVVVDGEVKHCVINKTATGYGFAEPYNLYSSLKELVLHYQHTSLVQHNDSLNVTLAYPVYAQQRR
PI3K-gamma, sequence (P48736 whole entry, species assumed, the tested form may be a part): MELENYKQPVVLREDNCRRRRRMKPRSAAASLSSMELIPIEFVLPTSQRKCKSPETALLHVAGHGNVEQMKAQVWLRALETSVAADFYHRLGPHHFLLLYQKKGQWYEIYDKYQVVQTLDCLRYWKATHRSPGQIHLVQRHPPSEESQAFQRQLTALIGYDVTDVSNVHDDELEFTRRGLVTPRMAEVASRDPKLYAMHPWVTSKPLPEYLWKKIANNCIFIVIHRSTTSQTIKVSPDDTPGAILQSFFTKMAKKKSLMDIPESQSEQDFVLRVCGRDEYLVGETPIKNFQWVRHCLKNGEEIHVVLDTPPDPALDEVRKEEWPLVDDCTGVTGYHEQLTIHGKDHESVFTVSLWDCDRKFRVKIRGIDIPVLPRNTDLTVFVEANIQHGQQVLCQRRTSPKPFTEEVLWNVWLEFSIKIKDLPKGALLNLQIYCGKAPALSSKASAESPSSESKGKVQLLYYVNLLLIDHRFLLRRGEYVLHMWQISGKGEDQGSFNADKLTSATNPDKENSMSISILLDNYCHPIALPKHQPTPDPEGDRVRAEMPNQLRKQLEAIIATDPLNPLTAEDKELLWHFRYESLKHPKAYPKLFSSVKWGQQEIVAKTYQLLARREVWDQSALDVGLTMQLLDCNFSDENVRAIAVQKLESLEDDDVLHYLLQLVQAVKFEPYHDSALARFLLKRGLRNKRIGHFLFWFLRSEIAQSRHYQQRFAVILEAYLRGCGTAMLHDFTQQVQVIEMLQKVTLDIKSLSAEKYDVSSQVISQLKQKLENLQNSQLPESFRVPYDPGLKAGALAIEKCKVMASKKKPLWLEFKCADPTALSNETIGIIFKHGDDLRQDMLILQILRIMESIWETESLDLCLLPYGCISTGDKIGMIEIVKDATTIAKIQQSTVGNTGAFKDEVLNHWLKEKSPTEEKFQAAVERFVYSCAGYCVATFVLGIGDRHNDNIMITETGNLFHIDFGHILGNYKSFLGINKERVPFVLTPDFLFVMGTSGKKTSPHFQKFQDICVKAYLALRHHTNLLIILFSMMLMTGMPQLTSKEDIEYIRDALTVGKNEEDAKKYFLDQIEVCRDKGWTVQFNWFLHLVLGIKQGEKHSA

Row | IC50 (PI3K-alpha) | IC50 (PI3K-gamma) | Structure (SMILES)
1 | > 10 µM | > 10 µM | Cn1cc(/C=C2\Oc3ccc(O)cc3C2=O)c2c(-c3ccccc3)cccc21 [Compound 530, (2Z)-5-hydroxy-2-[(1-methyl-4-phenyl-1H-indol-3-yl)methylene]-1-benzofuran-3(2H)-one]
2 | > 10 µM | > 10 µM | Cn1cc(/C=C2\Oc3ccc(NC(=O)OC(C)(C)C)cc3C2=O)c2c(-c3ccccc3)cccc21 [Compound 532, tert-butyl {(2Z)-2-[(1-methyl-4-phenyl-1H-indol-3-yl)methylene]-3-oxo-2,3-dihydro-1-benzofuran-5-yl}carbamate]
3 | 0.0022 µM | 0.389 µM | CNC(=O)Nc1ccc2c(c1)C(=O)/C(=C/c1c(C3CCCCC3)n(CCN3CCN(C)CC3)c3ccc(OC)cc13)O2 [Compound 533, 1-[(2Z)-2-({2-cyclohexyl-5-methoxy-1-[2-(4-methylpiperazin-1-yl)ethyl]-1H-indol-3-yl}methylene)-3-oxo-2,3-dihydro-1-benzofuran-5-yl]-3-methylurea]
4 | 5.88 µM | 0.476 µM | Cn1cc(/C=C2\Oc3ccc(N)cc3C2=O)c2c(-c3ccccc3)cccc21 [Compound 534, (2Z)-5-amino-2-[(1-methyl-4-phenyl-1H-indol-3-yl)methylene]-1-benzofuran-3(2H)-one]
5 | > 10 µM | > 10 µM | Cn1cc(/C=C2\Oc3ccc(NC(=O)Nc4cccnc4)cc3C2=O)c2c(-c3ccccc3)cccc21 [Compound 535, 1-{(2Z)-2-[(1-methyl-4-phenyl-1H-indol-3-yl)methylene]-3-oxo-2,3-dihydro-1-benzofuran-5-yl}-3-pyridin-3-ylurea]
6 | 0.0585 µM | 0.545 µM | CNC(=O)Nc1ccc2c(c1)C(=O)/C(=C/c1c[nH]c3ccc(OC)cc13)O2 [Compound 536, 1-{(2Z)-2-[(5-methoxy-1H-indol-3-yl)methylene]-3-oxo-2,3-dihydro-1-benzofuran-5-yl}-3-methylurea]
7 | 0.421 µM | > 10 µM | COc1ccc2c(c1)c(/C=C1\Oc3ccc(NC(N)=O)cc3C1=O)cn2CCCN(C)C [Compound 537, 1-[(2Z)-2-({1-[3-(dimethylamino)propyl]-5-methoxy-1H-indol-3-yl}methylene)-3-oxo-2,3-dihydro-1-benzofuran-5-yl]urea]
8 | 0.82 µM | > 10 µM | COC(=O)Nc1ccc2c(c1)C(=O)/C(=C/c1cn(CCCN(C)C)c3ccc(OC)cc13)O2 [Compound 538, methyl [(2Z)-2-({1-[3-(dimethylamino)propyl]-5-methoxy-1H-indol-3-yl}methylene)-3-oxo-2,3-dihydro-1-benzofuran-5-yl]carbamate]
9 | > 10 µM | > 10 µM | CNC(=O)c1ccc2c(c1)C(=O)/C(=C/c1cn(CCCN(C)C)c3ccc(OC)cc13)O2 [Compound 539, (2Z)-2-({1-[3-(dimethylamino)propyl]-5-methoxy-1H-indol-3-yl}methylene)-Nmethyl-3-oxo-2,3-dihydro-1-benzofuran-5-carboxamide]
10 | 0.104 µM | 1.55 µM | COc1ccc(NC(=O)Nc2ccc3c(c2)C(=O)/C(=C/c2cn(CCCN(C)C)c4ccc(OC)cc24)O3)cc1 [Compound 540, 1-[(2Z)-2-({1-[3-(dimethylamino)propyl]-5-methoxy-1H-indol-3-yl}methylene)-3-oxo-2,3-dihydro-1-benzofuran-5-yl]-3-(4-methoxyphenyl)urea]
11 | 1.38 µM | 9.1 µM | COc1ccc2c(c1)c(/C=C1\Oc3ccc(CO)cc3C1=O)cn2CCN1CCN(C)CC1 [Compound 541, (2Z)-5-(hydroxymethyl)-2-({5-methoxy-1-[2-(4-methylpiperazin-1-yl)ethyl]-1Hindol-3-yl}methylene)-1-benzofuran-3(2H)-one]

Row | Structure (SMILES) | IC50 (PI3K-alpha) | IC50 (PI3K-gamma)
12 | Cn1cc(/C=C2\Oc3cc(O)cc(O)c3C2=O)c2c(-c3ccccc3)cccc21 [Compound 531, (2Z)-4,6-dihydroxy-2-[(1-methyl-4-phenyl-1H-indol-3-yl)methylene]-1-benzofuran-3(2H)-one] | 0.34 µM | 2.53 µM
